{"source": "patent US20200038478A1", "about": "“POLYPEPTIDE AND COMPOSITION THEREOF FOR TREATING DISEASES OF METABOLIC SYSTEM” (WUHAN GRECTECH CO., LTD., priority 2017, published 2020)", "key": {"[1]": {"tested_on": "mouse models of type 2 diabetes", "assay": "Polypeptide mixture vs metformin, mouse models of type 2 diabetes, single gavage (Example 17)", "details": "KK mice, polypeptide 2 mg/mL, metformin 20 mg/mL, each 0.05 ml/10 g"}, "[2]": {"tested_on": "mouse models of type 2 diabetes", "assay": "Hypoglycemic activity of solid compositions, STZ/high-fat diet diabetic mice, gavage 4 weeks (Example 24)", "format": "in vivo", "details": "fasting; STZ + high-fat diet C57BL/6 mice; gavage once a day; compositions 2 mg/mL polypeptide O, metformin 20 mg/mL (100 mg/Kg), each 0.05 ml/10 g", "procedure": "Male C57BL/6 mice at 4 weeks of age, after adapting to the environment for 5 days, were randomly divided into normal control group (10 mice) and model-to-be established groups (90 mice). The mice in the normal control group were fed with normal diet. The mice in the model-to-be established groups were fed with high-fat diet and intraperitoneally injected with streptozotocin (STZ) in citrate buffer at a dose of 45 mg/kg. After injection, the mice were fasted for 1.5 hours and injected for 5 consecutive days, and then the diabetic mouse model was established. […] The mice with the fasting blood glucouse level between 10.0 and 20.0 mmol/L and at the same time having polydipsia and polyuria were selected out as the diabetic mice. Then, the selected diabetic mice were randomly divided into five groups: model control group, metformin group, Composition D group, […], and […], 10 mice in each group. The mice were administered by gavage with the corresponding drug: normal saline (100 μL for each mouse), metformin (0.05 ml/10 g), composition D (0.05 ml/10 g), composition E (0.05 ml/10 g) and composition F (0.05 ml/10 g), respectively, once a day for 4 weeks. The mice in normal control group were administered with normal saline (100 μL for each mouse). The diabetic mice were fed with high-fat diet continuously and drank water freely, and the mice in normal control group were fed with normal diet and drank water freely."}, "diabetic mice [3]": {"tested_on": "diabetic mice", "assay": "Serum TC and TG in STZ diabetic mice after 4 weeks (Example 25)", "format": "in vivo", "details": "after 4 weeks intragastric treatment, STZ + high-fat diet BALB/c mice", "procedure": "Male BALB/c mice at 7 weeks of age, after adapting to the environment for 2 days, were randomly divided into normal control group (10 mice) and model-to-be established groups (70 mice). The mice in the normal control group were fed with normal diet. The mice in the model-to-be established groups were fed with high-fat diet, intraperitoneally injected with streptozotocin (STZ) in citrate buffer at a dose of 100 mg/kg, and then the diabetic mouse model was established. […] The mice with the blood glucouse level higher than 11.0 mmol/L and at the same time having polydipsia and polyuria were selected out as the diabetic mice. Then the selected diabetic mice were randomly divided into four groups: model control group, metformin group, Composition E group and Composition F group, 10 mice in each group. The mice were intragastric administered with the corresponding drugs: normal saline (100 μL for each mouse), metformin (0.05 ml/10 g), Composition E (0.05 ml/10 g) and Composition F (0.05 ml/10 g), respectively, once a day for 4 weeks. The mice in normal control group were administered with normal saline (100 μL for each mouse). […]\nAfter the end of experiment, blood samples were collected from the eyeballs of the mice, serum was separated and the serum levels of TC and TG were detected."}, "[4]": {"tested_on": "mouse models of type 2 diabetes", "assay": "Oral glucose tolerance test after 4-week treatment (Example 20)", "format": "in vivo, KK mice", "details": "glucose 2.5 g/kg by gavage one hour after last dose of 4-week gavage treatment", "procedure": "2.4 Oral glucose tolerance test: one hour after the last administration, the remaining mice in the diabetic model control group, metformin treatment group, polypeptide treatment group and normal control group (10 mice in each group) after the selection in experiment 2.3 were administered by gavage with glucose at a dose of 2.5 g/kg."}, "[5]": {"tested_on": "mouse models of type 2 diabetes", "assay": "Pancreas weight, H&E staining and immunohistochemistry after 4-week treatment (Example 20)", "format": "in vivo", "details": "KK mice sacrificed after treatment for four weeks by gavage", "source_text": "2.5 All mice were sacrificed after treatment for four weeks, and the pancreatic tissues were weighed, stained with H&E and detected by immunohistochemistry."}, "[6]": {"tested_on": "mouse models of type 2 diabetes", "assay": "Insulin tolerance test after 4-week treatment (Example 20)", "format": "in vivo, KK mice", "details": "insulin 0.5 U/mL at 0.05 ml/10 g s.c. one hour after last dose of 4-week gavage treatment"}, "[7]": {"tested_on": "mouse models of type 2 diabetes", "assay": "Blood glucose during 4-week gavage treatment, polypeptide mixture vs metformin (Example 20)", "details": "KK mice, metformin 20 mg/mL, each 0.05 ml/10 g"}, "diabetic mice [8]": {"tested_on": "diabetic mice", "assay": "Fasting blood glucose in STZ diabetic mice, intragastric 4 weeks (Example 25)", "format": "in vivo, BALB/c mice", "procedure": "Male BALB/c mice at 7 weeks of age, after adapting to the environment for 2 days, were randomly divided into normal control group (10 mice) and model-to-be established groups (70 mice). The mice in the normal control group were fed with normal diet. The mice in the model-to-be established groups were fed with high-fat diet, intraperitoneally injected with streptozotocin (STZ) in citrate buffer at a dose of 100 mg/kg, and then the diabetic mouse model was established. […] The mice with the blood glucouse level higher than 11.0 mmol/L and at the same time having polydipsia and polyuria were selected out as the diabetic mice. Then the selected diabetic mice were randomly divided into four groups: model control group, metformin group, Composition E group and Composition F group, 10 mice in each group. The mice were intragastric administered with the corresponding drugs: normal saline (100 μL for each mouse), metformin (0.05 ml/10 g), Composition E (0.05 ml/10 g) and Composition F (0.05 ml/10 g), respectively, once a day for 4 weeks. The mice in normal control group were administered with normal saline (100 μL for each mouse). The diabetic mice were fed with high-fat diet continuously and drank water freely, and the mice in normal control group were fed with normal diet and drank water freely."}, "[9]": {"details": "gavage once a day, polypeptide tablet suspension 2 mg/ml"}, "[10]": {"details": "fasting, STZ (100 mg/kg) + high-fat diet BALB/c mice, intragastric once a day, compositions 2 mg/mL polypeptide O, metformin 200 mg/mL (1000 mg/kg), each 0.05 ml/10 g"}}, "note": "Structures can show the parent of a compound that is named as a salt.", "data": [{"smiles": "CN(C)C(=N)N=C(N)N", "note": "[Metformin, Metformin hydrochloride]", "values": [{"measurement": "Blood glucose level at 15 min after administration", "setting": "[1]", "value": "12.6 ± 1.2", "unit": "mmol/L"}, {"measurement": "Blood glucose level at 30 min after administration", "setting": "[1]", "value": "10.4 ± 0.9", "unit": "mmol/L"}, {"measurement": "Blood glucose level at 45 min after administration", "setting": "[1]", "value": "9.3 ± 0.8", "unit": "mmol/L"}, {"measurement": "Blood glucose level at 60 min after administration", "setting": "[1]", "value": "8.2 ± 0.5", "unit": "mmol/L"}, {"measurement": "Blood glucose level prior to administration", "setting": "[1]; baseline", "value": "14.2 ± 1.1", "unit": "mmol/L"}, {"measurement": "Blood glucose level after four weeks", "setting": "[2]", "value": "9.2 ± 0.9", "unit": "mmol/L"}, {"measurement": "Blood glucose level after one week", "setting": "[2]", "value": "11.9 ± 0.6", "unit": "mmol/L"}, {"measurement": "Blood glucose level after three weeks", "setting": "[2]", "value": "11.3 ± 1.2", "unit": "mmol/L"}, {"measurement": "Blood glucose level after two weeks", "setting": "[2]", "value": "13.2 ± 0.5", "unit": "mmol/L"}, {"measurement": "TC", "setting": "diabetic mice [3]", "value": "2.32 ± 0.78", "unit": "mmol/L"}, {"measurement": "TG", "setting": "diabetic mice [3]", "value": "1.87 ± 1.26", "unit": "mmol/L"}, {"measurement": "0 min blood glucose level", "setting": "[4]", "value": "6.8 ± 0.8", "unit": "mmol/L"}, {"measurement": "30 min blood glucose level", "setting": "[4]", "value": "16.8 ± 4.1", "unit": "mmol/L"}, {"measurement": "60 min blood glucose level", "setting": "[4]", "value": "13.4 ± 2.4", "unit": "mmol/L"}, {"measurement": "90 min blood glucose level", "setting": "[4]", "value": "10.6 ± 3.2", "unit": "mmol/L"}, {"measurement": "120 min blood glucose level", "setting": "[4]", "value": "8.2 ± 1.7", "unit": "mmol/L"}, {"measurement": "Pancreas weight/body weight (%)", "setting": "[5]", "value": "1.32 ± 0.06", "unit": "%"}, {"measurement": "0 min blood glucose level", "setting": "[6]", "value": "6.8 ± 0.8", "unit": "mmol/L"}, {"measurement": "30 min blood glucose level", "setting": "[6]", "value": "4.1 ± 1.1", "unit": "mmol/L"}, {"measurement": "60 min blood glucose level", "setting": "[6]", "value": "4.8 ± 1.2", "unit": "mmol/L"}, {"measurement": "90 min blood glucose level", "setting": "[6]", "value": "5.4 ± 0.7", "unit": "mmol/L"}, {"measurement": "120 min blood glucose level", "setting": "[6]", "value": "6.2 ± 1.3", "unit": "mmol/L"}, {"measurement": "Initial blood glucose level", "setting": "[7]; gavage once a day for 4 weeks, polypeptide tablets (mixture:hydroxypropyl methylcellulose 8:2) suspension 2 mg/ml, baseline", "value": "9.3 ± 1.1", "unit": "mmol/L"}, {"measurement": "Blood glucose level after four weeks", "setting": "[7]; [9]", "value": "6.8 ± 0.8", "unit": "mmol/L"}, {"measurement": "Blood glucose level after one week", "setting": "[7]; [9]", "value": "8.1 ± 1.1", "unit": "mmol/L"}, {"measurement": "Blood glucose level after three weeks", "setting": "[7]; [9]", "value": "7.3 ± 1.2", "unit": "mmol/L"}, {"measurement": "Blood glucose level after two weeks", "setting": "[7]; [9]", "value": "7.2 ± 0.9", "unit": "mmol/L"}, {"measurement": "Blood glucose level after four weeks", "setting": "diabetic mice [8]; [10]", "value": "8.0 ± 0.7", "unit": "mmol/L"}, {"measurement": "Blood glucose level after one week", "setting": "diabetic mice [8]; [10]", "value": "12.6 ± 0.7", "unit": "mmol/L"}, {"measurement": "Blood glucose level after three weeks", "setting": "diabetic mice [8]; [10]", "value": "12.3 ± 1.0", "unit": "mmol/L"}, {"measurement": "Blood glucose level after two weeks", "setting": "diabetic mice [8]; [10]", "value": "13.5 ± 0.7", "unit": "mmol/L"}, {"measurement": "control of blood glucose (conclusion)", "setting": "diabetic mice [8]; metformin at ultra-high-dose 1000 mg/kg", "value": "could not control blood glucose effectively"}]}]}
